The record followed here is US20040006002A1, “Methods and compositions for treating flaviviruses and pestiviruses using 4'-modified nucleoside” (priority 2001, published 2004).

The subject of data set [1] is BVDV (strain NADL). The data set is described as follows: Cell Protection Assay (CPA), BVDV-infected MDBK cells. Format: cell-based, Bovine Viral Diarrhea virus. As to conditions: MOI 0.02, MDBK cells, four days post-infection, 50% reduction of cytopathic effect. As to the method: (§1) The test compounds were dissolved in DMSO at an initial concentration of 200 μM and then were serially diluted in culture medium.
(§2) The assay is performed essentially as described by Baginski, S. G.; Pevear, D. C.; Seipel, M.; Sun, S. C. C.; Benetatos, C. A.; Chunduru, S. K.; Rice, C. M. and M. S. Collett “Mechanism of action of a pestivirus antiviral compound” PNAS USA 2000, 97(14), 7981-7986. MDBK cells (ATCC) are seeded onto 96-well culture plates (4,000 cells per well) 24 hours before use. After infection with BVDV (strain NADL, ATCC) at a multiplicity of infection (MOI) of 0.02 plaque forming units (PFU) per cell, serial dilutions of test compounds are added to both infected and uninfected cells in a final concentration of 0.5% DMSO in growth medium. Each dilution is tested in quadruplicate. Cell densities and virus inocula are adjusted to ensure continuous cell growth throughout the experiment and to achieve more than 90% virus-induced cell destruction in the untreated controls after four days post-infection. After four days, plates are fixed with 50% TCA and stained with sulforhodamine B. The optical density of the wells is read in a microplate reader at 550 nm. The 50% effective concentration (EC50) values are defined as the compound concentration that achieved 50% reduction of cytopathic effect of the virus.

The nature of data set [2]: Cell Protection Assay (CPA), uninfected cells (cytotoxicity). Format: cell-based. As to conditions: bovine, uninfected MDBK cells, Table 2, Cell Protection Assay. As to the method:
(§3) Cells are seeded at a rate of between 5×10^3 and 5×10^4/well into 96-well plates in growth medium overnight at 37° C. in a humidified CO2 (5%) atmosphere. New growth medium containing serial dilutions of the drugs is then added. After incubation for 4 days, cultures are fixed in 50% TCA and stained with sulforhodamineB. The optical density was read at 550 nm. The cytotoxic concentration was expressed as the concentration required to reduce the cell number by 50% (CC50).
as §2

The nature of data set [3]: Cytotoxicity assay (sulforhodamine B, 4 days). Format: cell-based. As to conditions: bovine; MDBK cells, 4 days incubation, concentration reducing cell number by 50%; preliminary results. As to the method:
as §1, §3

Data set [4] concerns MDBK cells. The data set is described as follows: Cell Protection Assay (CPA), uninfected cells (cytotoxicity). Format: cell-based. As to conditions: Table 2, Cell Protection Assay. As to the method: as §3, §2
Data set [5] deals with MDBK. The data set is described as follows: Cytotoxicity assay (sulforhodamine B, 4 days). It is filed as cell-based. The note with it: MDBK cells, 4 days incubation, concentration reducing cell number by 50%; preliminary results. As to the method:
as §1, §3

Setting [6] is: Bovine viral diarrhea virus isolates and strains, 96 h.

Where only a bound is given, the exact number is not on record here.

Consider `C[C@]1(CO)O[C@@H](n2cnc3c(N)ncnc32)[C@H](O)[C@@H]1O` [β-D-4'-CH3-riboA, 9-(4-C-methyl-β-D-ribofuranosyl) adenine], for which the melting point was 96 to 97 °C (dec.). In data set [1] (setting [6]), this molecule displayed a concentration giving a half-maximal response (EC50) greater than 250 µM. This molecule also gave a cytotoxic concentration (CC50) at 4 days in data set [2] greater than 250 µM. Besides, the CC50 at 4 days in data set [3] was greater than 250 µM.
With `C[C@]1(CO)O[C@@H](n2cnc3c(=O)[nH]c(N)nc32)[C@H](O)[C@@H]1O` [β-D-4'-CH3-riboG, 9-(4-C-methyl-β-D-ribofuranosyl) guanine], in data set [1] (setting [6]), the 50% effective concentration (EC50) amounted to 43 µM. Also, the 50% cytotoxic concentration (CC50) at 4 days in data set [2] and in data set [3] was greater than 250 µM throughout.
On to `C[C@]1(CO)O[C@@H](n2ccc(N)nc2=O)[C@H](O)[C@@H]1O` [β-D-4'-CH3-riboC, 1-(4-C-methyl-β-D-ribofuranosyl)cytosine], for which the EC50 in data set [1] (setting [6]) was 9 µM. The 50% cytotoxic concentration (CC50) at 4 days in data set [2] and in data set [3] was greater than 250 µM each time.
In data set [1], `C[C@]1(CO)O[C@@H](n2cc(F)c(=O)[nH]c2=O)[C@H](O)[C@@H]1O` [β-D-4'-CH3-ribo-5-fluoroU] had a 50% effective concentration (EC50) greater than 167 µM. Besides, the 50% cytotoxic concentration (CC50) in data set [4] and in data set [5] was greater than 167 µM each time.
Take `Cc1cn([C@@H]2O[C@](C)(CO)[C@@H](O)[C@H]2O)c(=O)[nH]c1=O` [β-D-4'-CH3-riboT, 1-(4-C-methyl-β-D-ribofuranosyl)thymine]: the melting point was 258 to 260 °C (dec.). The same molecule gave a concentration for a half-maximal effect (EC50) in data set [1] (setting [6]) greater than 250 µM. The molecule further had a CC50 at 4 days in data set [2] greater than 250 µM. The CC50 at 4 days in data set [3] was greater than 250 µM.
As to `C[C@]1(CO)O[C@@H](n2ccc(=S)[nH]c2=O)[C@H](O)[C@@H]1O` [β-D-4'-CH3-ribo-4-thioU, 1-(4-C-methyl-β-D-ribofuranosyl)4-thio-uracil], the melting point was 65 to 70 °C (dec.). In data set [1] (setting [6]), this molecule returned an EC50 greater than 250 µM. In addition, in data set [2], the CC50 at 4 days was greater than 250 µM. Also, the CC50 at 4 days in data set [3] was greater than 250 µM.
